In patent US20260085034A1, “N-(BENZHYDRYL)CYCLOALKYLCARBOXAMIDE DERIVATIVES AS INHIBITORS OF GLYCOGEN SYNTHASE 1 (GYS1) AND METHODS OF USE THEREOF” (Maze Therapeutics, Inc., priority 2022, published 2026) one finds IC50 data, which are given here for one molecule.

In this assay the target is T1, recombinant hGYS2/GN1 protein (Homo sapiens, UniProt P54840).
T1 sequence (P54840 1-703): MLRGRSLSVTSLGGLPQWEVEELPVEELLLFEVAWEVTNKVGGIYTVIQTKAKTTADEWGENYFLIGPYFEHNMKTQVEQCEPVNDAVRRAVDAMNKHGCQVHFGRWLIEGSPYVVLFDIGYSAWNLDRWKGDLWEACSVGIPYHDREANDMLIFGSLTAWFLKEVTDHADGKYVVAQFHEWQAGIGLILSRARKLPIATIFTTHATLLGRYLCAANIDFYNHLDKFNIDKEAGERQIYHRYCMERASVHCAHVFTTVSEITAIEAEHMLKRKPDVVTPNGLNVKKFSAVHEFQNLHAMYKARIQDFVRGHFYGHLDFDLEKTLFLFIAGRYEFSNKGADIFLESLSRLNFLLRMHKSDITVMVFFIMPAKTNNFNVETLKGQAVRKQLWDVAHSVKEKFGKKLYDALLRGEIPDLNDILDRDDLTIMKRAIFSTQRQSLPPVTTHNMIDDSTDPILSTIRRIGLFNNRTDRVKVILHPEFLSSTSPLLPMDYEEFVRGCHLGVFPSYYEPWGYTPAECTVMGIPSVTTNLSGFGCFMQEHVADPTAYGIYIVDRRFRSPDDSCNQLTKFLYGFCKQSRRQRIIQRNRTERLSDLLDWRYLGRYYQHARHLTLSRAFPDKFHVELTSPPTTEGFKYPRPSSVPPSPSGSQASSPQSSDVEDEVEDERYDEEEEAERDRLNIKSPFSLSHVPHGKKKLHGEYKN
T1 sequence (P46976 1-350 partner): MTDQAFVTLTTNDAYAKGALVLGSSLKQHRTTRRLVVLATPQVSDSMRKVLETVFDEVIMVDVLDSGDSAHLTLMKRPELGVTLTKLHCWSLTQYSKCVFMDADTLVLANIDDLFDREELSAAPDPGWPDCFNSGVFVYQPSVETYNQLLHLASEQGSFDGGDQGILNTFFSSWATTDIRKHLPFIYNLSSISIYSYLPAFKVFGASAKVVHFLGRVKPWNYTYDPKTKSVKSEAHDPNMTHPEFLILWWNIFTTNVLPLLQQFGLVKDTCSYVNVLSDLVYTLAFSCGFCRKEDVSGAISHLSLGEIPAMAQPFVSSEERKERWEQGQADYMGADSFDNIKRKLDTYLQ
The assay is described as follows: GYS2 coupled enzyme assay (PK/LDH). It counts as biochemical. As to conditions: geometric mean of at least 2 assay runs; NADH absorbance at 340 nm. The method, boiled down: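 Reaction in 50 mM Tris pH 7.5, 2 mM MgCl2, 100 mM KCl, 0.02% BSA, 1 mM TCEP, 2.5% DMSO, with 0.2% glycogen. Substrate buffer held 200 nM hGYS2/GN1, 2 mM each UDP-glucose, G6P and PEP, 0.6 mM NADH and PK/LDH, before 1:1 mixing. A340 slope over 10 min was control-normalized and Hill-fitted; IC50 = geometric mean of ≥2 runs, duplicates per run.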

Consider `CC(C)c1ccc([C@@H](NC(=O)[C@H]2C[C@@H]2F)c2ccn[nH]2)cc1F` (single isomer, unassigned) [compound 11], for which the 50% inhibitory concentration (IC50) (commonly the concentration at which inhibition is half-maximal) is more than 100 µM.
